Measurements published in ChEMBL document CHEMBL1201862, “PubChem BioAssay data set” (2004).
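These data come from cells grown in 96-well plates and exposed to compound for 48 hours at five concentrations. GI50 marks 50% less growth.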 The source made the active and inactive calls. Cut-off read from the data, not from the text of the source: active = GI50 up to about 1.1 µM and inactive = higher.

Tests used:
Experiment in all cases: DTP human tumour cell line panel, 48 h
[1] = system: 786-0
[2] = system: A498
[3] = system: A549
[4] = system: ACHN
[5] = system: BT-549
[6] = system: CAKI-1
[7] = system: CCRF-CEM
[8] = system: COLO 205
[9] = system: DU-145
[10] = system: EKVX
[11] = system: HCC 2998
[12] = system: HCT-116
[13] = system: HCT-15
[14] = system: HL-60
[15] = system: HOP-62
[16] = system: HOP-92
[17] = system: HT-29
[18] = system: Hs-578T
[19] = system: IGROV-1
[20] = system: K562
[21] = system: KM12
[22] = system: LOX IMVI
[23] = system: M14
[24] = system: MCF7
[25] = system: MDA-MB-231
[26] = system: MDA-MB-435
[27] = system: MDA-N
[28] = system: MOLT-4
[29] = system: Malme-3M
[30] = system: NCI-H226
[31] = system: NCI-H23
[32] = system: NCI-H460
[33] = system: NCI-H522
[34] = system: NCI/ADR-RES
[35] = system: OVCAR-3
[36] = system: OVCAR-4
[37] = system: OVCAR-5
[38] = system: OVCAR-8
[39] = system: PC-3
[40] = system: RPMI-8226
[41] = system: RXF 393
[42] = system: SF-268
[43] = system: SF-295
[44] = system: SF-539
[45] = system: SK-MEL-28
[46] = system: SK-MEL-2
[47] = system: SK-MEL-5
[48] = system: SK-OV-3
[49] = system: SN12C
[50] = system: SNB-19
[51] = system: SNB-75
[52] = system: SR
[53] = system: SW-620
[54] = system: T47D
[55] = system: TK-10
[56] = system: U-251
[57] = system: UACC-257
[58] = system: UACC-62
[59] = system: UO-31

Measured: GI50

Oc1ccccc1-c1nn2c(CCCCCCCCc3nnc4sc(-c5ccccc5O)nn34)nnc2s1
7.6 µM: [13]
active: [14] 1.03 µM
inactive: [1] 14.7 µM | [2] 14.5 µM | [3] 6 µM | [4] 12 µM | [5] 24.2 µM | [6] 5.11 µM | [7] 5.42 µM | [8] 37.2 µM | [9] 18 µM | [10] 22.4 µM | [11] 27.2 µM | [12] 10.5 µM | [15] 8.71 µM | [16] 19.1 µM | [17] 11.1 µM | [18] 8.57 µM | [19] 4.66 µM | [20] 7.6 µM | [21] 21 µM | [22] 9.46 µM | [23] 11.2 µM | [24] 11.1 µM | [25] 17.3 µM | [26] 5.18 µM | [27] 4.58 µM | [28] 8.39 µM | [29] 35 µM | [30] > 48.9 µM | [31] 18.8 µM | [32] 8.05 µM | [33] 13.9 µM | [34] 12 µM | [35] 14.4 µM | [36] 14.1 µM | [37] 6.27 µM | [38] 18.7 µM | [39] 26.5 µM | [40] 11.1 µM | [41] 10.2 µM | [42] 19 µM | [43] 9.98 µM | [44] 8.53 µM | [45] 24.6 µM | [46] 15.9 µM | [47] 18.3 µM | [48] 15.2 µM | [49] 19.5 µM | [50] 23.7 µM | [51] 5.94 µM | [52] 3.93 µM | [53] 27.9 µM | [54] 4.9 µM | [55] 37.2 µM | [56] 12.9 µM | [57] 20.3 µM | [58] 7.06 µM | [59] 4.11 µM

O=[N+]([O-])c1ccc(-[n+]2ccc3ccccc3c2)c([N+](=O)[O-])c1
inactive: [1] 1.73 µM | [2] 14.8 µM | [3] 16.4 µM | [4] 2.02 µM | [5] 4.83 µM | [6] 4.14 µM | [7] 1.54 µM | [8] 2.55 µM | [9] 14.6 µM | [10] 6.73 µM | [11] 13.7 µM | [12] 2.35 µM | [14] 1.54 µM | [15] 8.18 µM | [16] 2.48 µM | [17] 2.33 µM | [18] 7.6 µM | [19] 3.1 µM | [20] 1.55 µM | [21] 12.3 µM | [22] 1.95 µM | [23] 4.55 µM | [24] 1.88 µM | [25] 3.62 µM | [26] 2.5 µM | [27] 2.33 µM | [28] 2.83 µM | [29] 3.94 µM | [30] 16.2 µM | [31] 2.43 µM | [32] 10.9 µM | [33] 2.1 µM | [34] 3.28 µM | [35] 2.55 µM | [36] 1.56 µM | [37] 11.7 µM | [38] 2.47 µM | [39] 3.93 µM | [40] 2.32 µM | [41] 1.92 µM | [42] 3.12 µM | [43] 14.8 µM | [44] 5.21 µM | [45] 2.83 µM | [46] 11.1 µM | [47] 2.64 µM | [48] 14.1 µM | [49] 2.69 µM | [50] 18.1 µM | [51] 3.14 µM | [52] 3.42 µM | [53] 1.95 µM | [54] 2.01 µM | [55] 1.85 µM | [56] 5.68 µM | [57] 1.81 µM | [58] 2.28 µM | [59] 5.02 µM
1.86 µM: [13]

O=C(CSc1ncccn1)N/N=C/c1ccccc1OCc1ccccc1
inactive: [1] 34.6 µM | [2] 22.1 µM | [3] 71.8 µM | [4] 35.2 µM | [5] 25 µM | [6] 26.4 µM | [7] 15.3 µM | [8] 19.2 µM | [9] 29.8 µM | [10] 27.9 µM | [11] 27.8 µM | [12] 23 µM | [14] 21.1 µM | [15] 28.2 µM | [16] 16.9 µM | [17] 34.1 µM | [18] 37.8 µM | [19] 28.4 µM | [20] 20.1 µM | [21] 28.4 µM | [22] 17.4 µM | [23] 29.2 µM | [24] 17.6 µM | [25] 30.9 µM | [26] 4.33 µM | [27] 10.8 µM | [28] 20.2 µM | [29] 32.4 µM | [30] 20.6 µM | [31] 32.3 µM | [32] 30.1 µM | [33] 28.4 µM | [34] 25.9 µM | [35] 16.4 µM | [36] 22.8 µM | [37] > 100 µM | [38] 28.7 µM | [39] 28.8 µM | [40] 19.5 µM | [41] 21.9 µM | [42] 43 µM | [43] 21.6 µM | [44] 20.8 µM | [45] 36.6 µM | [46] 21.3 µM | [47] 14.8 µM | [48] 37.6 µM | [49] 27.2 µM | [50] 45.3 µM | [51] 21.5 µM | [52] 4.23 µM | [53] 29.6 µM | [54] 24.8 µM | [55] 23.4 µM | [56] 26.8 µM | [57] 21 µM | [58] 20.9 µM | [59] 44.5 µM
17.3 µM: [13]
